Structures are written as SMILES.

In one test the test system is rhesus H3 receptor. Nature of the test: GTPγS radioligand binding assay: inhibition of rhesus H3 constitutive functional activity in cell membranes (inverse agonism). In kind it is biochemical, rhesus monkey (Macacca Mulatta). Details: concentration or dose not given beside the values. The following applies: negative value = below basal level. The procedure: (§1) Rhesus H3 membranes were prepared from the Flp-In T-REx 293 Cell Line (Invitrogen) stably transfected with pcDNA5/FRT/TO (Invitrogen) containing the rhesus monkey (Macacca Mulatta) 445 amino acid H3 receptor. (Genbank #AY231164). Stably transfected cultures were amplified in tissue culture flasks by standard tissue culture methods and induced to express rhesus H3 by exposure to 500 ng/ml tetracycline (Cellgro) for 24 hours. After induction, cells were dissociated from flasks utilizing Cell Stripper (Cellgro). Cells were centrifuged (1K×g, 5 min) and pellet frozen in an ethanol-dry ice bath to disrupt cell membranes. Frozen cell pellet was re-suspended in 5 mM HEPES (pH 7.4, Invitrogen) at 10 ml/1000 cm2 of harvested cells. The cell suspension was drawn through an 18 gauge needle (2-3×) followed by a 23 gauge needle (2-3×) to further disrupt cell membranes. The cell suspension was centrifuged (40K×g, 30 min). Cell membrane pellet was re-suspended in 5 mM HEPES (pH 7.4, Invitrogen) at a final protein concentration of 10 mg/ml. Rhesus H3 membranes were stored under liquid nitrogen prior to use in [3H]-Methylhistamine and GTP S radioligand binding assays.

In test [1] the target is T1, rhesus (Macacca Mulatta) H3 receptor (Macaca mulatta, UniProt Q865E1).
T1 construct: pcDNA5/FRT/TO (Invitrogen) containing the rhesus monkey (Macacca Mulatta) 445 amino acid H3 receptor
T1 sequence (Q865E1 1-445): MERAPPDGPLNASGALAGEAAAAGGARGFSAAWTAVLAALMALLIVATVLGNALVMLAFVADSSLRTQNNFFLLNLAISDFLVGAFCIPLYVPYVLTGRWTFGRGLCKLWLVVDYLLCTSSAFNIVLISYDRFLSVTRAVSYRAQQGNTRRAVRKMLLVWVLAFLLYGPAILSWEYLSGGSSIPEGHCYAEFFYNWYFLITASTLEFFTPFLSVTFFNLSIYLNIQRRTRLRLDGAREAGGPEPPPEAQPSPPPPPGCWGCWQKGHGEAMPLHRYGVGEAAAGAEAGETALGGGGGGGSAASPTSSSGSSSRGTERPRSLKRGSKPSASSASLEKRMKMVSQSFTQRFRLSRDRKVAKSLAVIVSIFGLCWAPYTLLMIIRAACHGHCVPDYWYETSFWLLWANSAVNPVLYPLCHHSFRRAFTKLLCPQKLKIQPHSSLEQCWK
Nature of the test: Rhesus H3 radioligand binding assay ([3H]-methylhistamine displacement, WGA SPA beads). Details: species or system rhesus monkey (Macacca Mulatta). The conditions noted are these: [3H]-methylhistamine 2 nM; membranes of Flp-In T-REx 293 cells expressing rhesus H3; Cheng-Prusoff. Here is the method:
as §1
Rhesus H3 radioligand binding assay was performed using rhesus H3 receptor membranes (prepared as described above), [3H]-Methylhistamine (Perkin Elmer) and WGA SPA beads (wheat germ agglutinin scintillation proximity assay) beads (Amersham). The assay was performed in 96-well Opti-Plates (Packard). Each reaction contained 50 μl rhesus H3 membranes (20-30 μg total protein), 50 μl WGA SPA beads (0.1 μg) and 50 μl of 83 Ci/mmol [^3H]-Methylhistamine (final concentration 2 nM) and 50 μl of tested compound. The compounds of this invention and/or vehicle were diluted with binding buffer from 10 mM DMSO stocks. Assay plates were sealed with TopSeal (Perkin Elmer) and mixed on shaker (25° C., 1 hour). Assay plates were read on TopCount scintillation counter (Packard). Results were analyzed by Hill transformation and Ki values were determined by Cheng-Prusoff equation.

Usually Ki stands for the dissociation constant of the complex between target and ligand, obtained from inhibition or displacement. `Cc1cc(N2CC[C@H](N3CCC[C@@H]3C)C2)ccc1N1CCC2(CCOCC2)C1=O` [Example 1, 2-[2-Methyl-4-((2S,3′S)-2-methyl-[1,3′]bipyrrolidinyl-1′-yl)-phenyl]-8-oxa-2-aza-spiro[4.5]decan-1-one]: the “Inverse Agonism: % inhibition of Basal GTPγS binding in Rhesus H3” value (shortened to “Inverse Agonism: % inhibition”) with rhesus H3 receptor is on record as −25%. In test [1], this compound had an inhibition constant (Ki) of 0.93 nM.
The corresponding values for `Cc1cc(N2CC[C@H](N3CCC[C@@H]3C)C2)ccc1N1CCCC2(CCOCC2)C1=O` [Example 2, 2-[2-Methyl-4-((2S,3′S)-2-methyl-[1,3′]bipyrrolidinyl-1′-yl)-phenyl]-9-oxa-2-aza-spiro[5.5]undecan-1-one] are −9% and 0.38 nM.
On to `C[C@H]1CCCN1[C@H]1CCN(c2ccc(N3CCC4(CCOCC4)C3=O)cc2)C1` [Example 3, 2-[4-((2S,3′S)-2-Methyl-[1,3′]bipyrrolidinyl-1′-yl)-phenyl]-8-oxa-2-aza-spiro[4.5]decan-1-one], for which the “Inverse Agonism: % inhibition” value with rhesus H3 receptor is listed as −26%. In test [1], this compound displayed a Ki of 0.63 nM.
`C[C@H]1CCCN1[C@H]1CCN(c2ccc(N3CCC4(CCOCC4)C3=O)cc2F)C1` [Example 4, 2-[3-Fluoro-4-((2S,3′S)-2-methyl-[1,3′]bipyrrolidinyl-1′-yl)-phenyl]-8-oxa-2-aza-spiro[4.5]decan-1-one]: the “Inverse Agonism: % inhibition” value with rhesus H3 receptor is listed as −31%. Moreover, in test [1], the inhibitory constant (Ki) came out at 2.1 nM.
The corresponding values for `Cc1cc(N2CCC(N3CCC[C@@H]3C)CC2)ccc1N1CCC2(CCOCC2)C1=O` [Example 5, 2-{2-Methyl-4-[4-((2S,3′S)-2-methyl-pyrrolidin-1-yl)-piperidin-1-yl]-phenyl}-8-oxa-2-aza-spiro[4.5]decan-1-one] are −11% and 0.7 nM.
The like results for `Cc1cc(N2CC[C@H](N3CCC[C@H]3C)C2)ccc1N1CCC2(CCOCC2)C1=O` [Example 6] were, in that order, −36% and 38 nM.
With `CCC1CCCN1C1CCN(c2ccc(N3CCC4(CCOCC4)C3=O)c(F)c2)C1` (stereo not shown) [Example 7, 2-[4-(2-Ethyl-[1,3′]bipyrrolidinyl-1′-yl)-2-fluoro-phenyl]-8-oxa-2-aza-spiro[4.5]decan-1-one], the “Inverse Agonism: % inhibition” value in the test with rhesus H3 receptor is −35%. Also, the Ki in test [1] came out at 5.2 nM.
As to `CC(C)C1CCCN1C1CCN(c2ccc(N3CCC4(CCOCC4)C3=O)c(F)c2)C1` (stereo not shown) [Example 8, 2-[2-Fluoro-4-(2-isopropyl-[1,3′]bipyrrolidinyl-1′-yl)-phenyl]-8-oxa-2-aza-spiro[4.5]decan-1-one], the “Inverse Agonism: % inhibition” value in the test with rhesus H3 receptor is −22%. Moreover, affinity in test [1] was put at a Ki of 76 nM.
The like results for `CCCC1CCCN1C1CCN(c2ccc(N3CCC4(CCOCC4)C3=O)c(F)c2)C1` (stereo not shown) [Example 9, 2-[2-Fluoro-4-(2-propyl-[1,3′]bipyrrolidinyl-1′-yl)-phenyl]-8-oxa-2-aza-spiro[4.5]decan-1-one] were, in that order, −30% and 170 nM.
`C[C@H]1CCCN1C1CCN(c2ccc(N3CCC4(CCOCC4)C3=O)c(F)c2)CC1` [Example 10, 2-{2-Fluoro-4-[4-((2S,3′S)-2-methyl-pyrrolidin-1-yl)piperidin-1-yl]-phenyl}-8-oxa-2-aza-spiro[4.5]decan-1-one]: the “Inverse Agonism: % inhibition” value in the test with rhesus H3 receptor is −33%. In addition, the affinity in test [1] corresponds to a Ki of 0.16 nM.
As to `C[C@H]1CCCN1[C@H]1CCN(c2ccc(N3CCC4(CCOCC4)C3=O)c(F)c2)C1` [Example 11, 2-[2-Fluoro-4-((2S,3′S)-2-methyl-[1,3′]bipyrrolidinyl-1′-yl)-phenyl]-8-oxa-2-aza-spiro[4.5]decan-1-one], the “Inverse Agonism: % inhibition” value in the test with rhesus H3 receptor is −11%. In addition, in test [1], the affinity corresponds to a Ki of 0.45 nM.
The like results for `C[C@H]1CCCCN1C1CCN(c2ccc(N3CCC4(CCOCC4)C3=O)c(F)c2)CC1` [Example 12, 2-[2-Fluoro-4-((2S,3′S)-2-methyl-[1,4]bipiperidinyl-1′-yl)-phenyl]-8-oxa-2-aza-spiro[4.5]decan-1-one] were, in that order, −22% and 0.45 nM.
The corresponding values for `CC(C)C1CCCN1C1CCN(c2ccc(N3CCC4(CCOCC4)C3=O)cc2)CC1` (stereo not shown) [Example 13, 2-{4-[4-(2-Isopropyl-pyrrolidin-1-yl)-piperidin-1-yl]-phenyl}-8-oxa-2-aza-spiro[4.5]decan-1-one] are −22% and 16 nM.
The corresponding values for `CCCC1CCCN1C1CCN(c2ccc(N3CCC4(CCOCC4)C3=O)cc2)CC1` (stereo not shown) [Example 14, 2-{4-[4-(2-Propyl-pyrrolidin-1-yl)-piperidin-1-yl]-phenyl}-8-oxa-2-aza-spiro[4.5]decan-1-one] are −33% and 13 nM.
Regarding `COCC1CCCN1C1CCN(c2ccc(N3CCC4(CCOCC4)C3=O)cc2)C1` (stereo not shown) [Example 15, 2-[4-(2-Methoxymethyl-[1,3′]bipyrrolidinyl-1′-yl)-phenyl]-8-oxa-2-aza-spiro[4.5]decan-1-one], the “Inverse Agonism: % inhibition” value in the test with rhesus H3 receptor is listed as −26%. In test [1], this compound registered an inhibition constant Ki of 190 nM.
The like results for `C[C@H]1CCCN1C1CCN(c2ccc(N3CCC4(CCOCC4)C3=O)cc2)CC1` [Example 16, 2-{4-[4-((2S,3′S)-2-Methyl-pyrrolidin-1-yl)-piperidin-1-yl]-phenyl}-8-oxa-2-aza-spiro[4.5]decan-1-one] were, in that order, −29% and 0.52 nM.
The corresponding values for `C[C@H]1CCCN1[C@H]1CCN(c2ccc(N3CCCC4(CCOCC4)C3=O)cc2F)C1` [Example 17, 2-[3-Fluoro-4-(2-methyl-[1,3′]bipyrrolidinyl-1′-yl)-phenyl]-9-oxa-2-aza-spiro[5.5]undecan-1-one] are −16% and 2.5 nM.
The like results for `CCC1CCCN1C1CCN(c2ccc(N3CCC4(CCOCC4)C3=O)c(C(F)(F)F)c2)CC1` (stereo not shown) [Example 18, 2-{4-[4-(2-Ethyl-pyrrolidin-1-yl)-piperidin-1-yl]-2-trifluoromethyl-phenyl}-8-oxa-2-aza-spiro[4.5]decan-1-one] were, in that order, −35% and 4.3 nM.
Turning to `CC(C)C1CCCN1C1CCN(c2ccc(N3CCC4(CCOCC4)C3=O)c(C(F)(F)F)c2)CC1` (stereo not shown) [Example 19, 2-{4-[4-(2-Isopropyl-pyrrolidin-1-yl)-piperidin-1-yl]-2-trifluoromethyl-phenyl}-8-oxa-2-aza-spiro[4.5]decan-1-one], the “Inverse Agonism: % inhibition” value in the test on rhesus H3 receptor is −8%. The inhibitory constant (Ki) in test [1] turned out to be 100 nM.
For `CCCC1CCCN1C1CCN(c2ccc(N3CCC4(CCOCC4)C3=O)c(C(F)(F)F)c2)C1` (stereo not shown) [Example 20, 2-[4-(2-Propyl-[1,3′]bipyrrolidinyl-1′-yl)-2-trifluoromethyl-phenyl]-8-oxa-2-aza-spiro[4.5]decan-1-one], the “Inverse Agonism: % inhibition” value with rhesus H3 receptor was −12%. Moreover, the Ki in test [1] was found to be 650 nM.
The corresponding values for `C[C@H]1CCCN1C1CCN(c2ccc(N3CCC4(CCOCC4)C3=O)c(C(F)(F)F)c2)CC1` [Example 21, 2-{4-[4-((2S,3′S)-2-Methyl-pyrrolidin-1-yl)-piperidin-1-yl]-2-trifluoromethyl-phenyl}-8-oxa-2-aza-spiro[4.5]decan-1-one] are −19% and 0.42 nM.
The corresponding values for `C[C@H]1CCCN1[C@H]1CCN(c2ccc(N3CCC4(CCOCC4)C3=O)c(C(F)(F)F)c2)C1` [Example 22, 2-[4-((2S,3′S)-2-Methyl-[1,3′]bipyrrolidinyl-1′-yl)-2-trifluoromethyl-phenyl]-8-oxa-2-aza-spiro[4.5]decan-1-one] are −21% and 8.6 nM.
The like results for `C[C@H]1CCCCN1C1CCN(c2ccc(N3CCC4(CCOCC4)C3=O)c(C(F)(F)F)c2)CC1` [Example 23, 2-[4-((2S,3′S)-2-Methyl-[1,4]bipiperidinyl-1′-yl)-2-trifluoromethyl-phenyl]-8-oxa-2-aza-spiro[4.5]decan-1-one] were, in that order, −29% and 1.5 nM.
For the compound `CCCC1CCCN1C1CCN(c2ccc(N3CCC4(CCOCC4)C3=O)c(CC)c2)CC1` (stereo not shown) [Example 24, 2-{2-Ethyl-4-[4-(2-propyl-pyrrolidin-1-yl)-piperidin-1-yl]-phenyl}-8-oxa-2-aza-spiro[4.5]decan-1-one], the “Inverse Agonism: % inhibition” value in the test with rhesus H3 receptor is on record as −18%. For the same compound, the affinity in test [1] corresponds to a Ki of 18 nM.
Take `CCc1cc(N2CCC(N3CCC[C@@H]3C)C2)ccc1N1CCC2(CCOCC2)C1=O` (stereo partly shown) [Example 26]: the affinity in test [1] corresponds to a Ki of 0.13 nM.

For the origin of these results see patent publication US8383814B2, “Substituted tetrahydropyran spiro pyrrolidinone and piperidinone, preparation and therapeutic use thereof” (Sanofi, priority 2008, dated 2013).
